The results in this text go back to paper PMC9343461, “Molecular and in vivo studies of a glutamate-class prolyl-endopeptidase for coeliac disease therapy” (Nature Communications, 2022).

Experiment [1] concerns the target T1, neprosin (mature catalytic domain, recombinant) (Nepenthes ventricosa x Nepenthes alata, UniProt C0HLV2).
T1 construct: Mature catalytic domain S129-Q380 from autolysis of pro-neprosin at P128-S129 (pro-domain R25-P128 removed); C-terminal Ala-Ile-Ala plus His6 tag kept; expressed in human Expi293F cells; glycosylated at N145 and N152; monomer
The experiment in a line: fluorogenic peptide cleavage (FS6-QPQL), inhibition curve. Type of experiment: biochemical.

Experiment [2] concerns the target T2, mature neprosin (catalytic domain, S129-Q380) with C-terminal His6 tag (Nepenthes x ventrata, UniProt C0HLV2 129-380, N-linked glycans at N145 and N152).
T2 construct: neprosin from Nepenthes x ventrata, UniProt C0HLV2, catalytic domain S129-Q380 released by cleavage at P128-S129; C-terminal purification tag, numbered A401-I402-A403 + H404-H409; written as a part because it lies in the active-site cleft of a symmetry mate; also called neprosin CD; mature enzyme; source: human Expi293F cells; pro-neprosin purified (Ni-NTA), autolysis at pH 2.5, then SEC; in the …
T2 sequence: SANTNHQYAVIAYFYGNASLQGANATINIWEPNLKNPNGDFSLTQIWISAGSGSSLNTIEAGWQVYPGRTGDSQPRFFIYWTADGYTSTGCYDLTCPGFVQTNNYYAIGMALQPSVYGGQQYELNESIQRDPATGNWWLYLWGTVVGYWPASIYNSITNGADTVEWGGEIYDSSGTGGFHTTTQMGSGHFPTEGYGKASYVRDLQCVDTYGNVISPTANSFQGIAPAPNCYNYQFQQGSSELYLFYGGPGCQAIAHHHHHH
The experiment in a line: crystal structure; orthorhombic crystals of pro-neprosin (native and Lu-Xo4 derivative), polypeptide cleaved at P128-S129; protein in 20 mM Tris-HCl pH 7.5, 150 mM NaCl; reservoir 0.1 M sodium acetate pH 4.0, 22% PEG 6000, 10% isopropanol, 20 °C. The note with it: both partners purified.

Read-outs that look alike come from different tables or passages of the source. Square brackets hold non-standard residues; d marks the D form. Peptide text beside a SMILES is read from it. * marks the point of attachment. Sta = CC(C)C[C@H](N)[C@@H](O)CC(=O)O; Isovaleryl = CC(C)CC(=O)*

As a reminder, the IC50 is the point on the concentration scale where inhibition reaches its midpoint. As to `O=[N+]([O-])c1ccc(OCC2CO2)cc1` (stereo not drawn) [EPNP, 2-[(4-nitrophenoxy)methyl]oxirane], the 50% inhibitory concentration (IC50) in experiment [1] is 480 µM.

Take `CC(C)CC(=O)N[C@H](C(=O)N[C@H](C(=O)N[C@@H](CC(C)C)[C@@H](O)CC(=O)N[C@@H](C)C(=O)N[C@@H](CC(C)C)[C@@H](O)CC(=O)O)C(C)C)C(C)C` [pepstatin A] (Isovaleryl-VV[Sta]A[Sta]-OH): the IC50 in experiment [1] (50 nM neprosin, 10 μM FS6-QPQL, 100 mM glycine pH 3.0, 37 °C, pre-incubated >1 h (pre-incubation stated for the inhibitor screen)) was determined as 140 µM.

B1: neprosin pro-domain (PD, R25-P128) (domain or fragment, Nepenthes x ventrata, UniProt C0HLV2 25-128, looked up)
chain: RSIQARLANKPKGTIKTIKGDDGEVVDCVDIYKQPAFDHPLLKNHTLQMQPSSYASKVGEYNKLEQPWHKNGECPKGSIPIRRQVITGLPVVKKQFPNLKFAPP
notes: neprosin from Nepenthes x ventrata, UniProt C0HLV2, N-terminal pro-domain R25-P128: globular part A29-G112 and linker L113-P128; Defined in the map from A29 onwards; Y77-N86 and N122 onwards are disordered; also called cleaved PD; source: human Expi293F cells; pro-neprosin purified (Ni-NTA, SEC), found cleaved at P128-S129 in the crystals
Take B1: the binding result in experiment [2] was “binds”.
